Series [1] can be described thus: Displacement of radiolabeled angiotensin2 from angiotensin AT1 receptor in rat adrenal cortex membranes. In kind it is cell membranes, Membrane.
Series [2] relates to Rattus norvegicus. Nature of the series: Antihypertensive activity in iv dosed renal artery ligated rat model assessed as reduction of means arterial blood pressure by 30 mm Hg. In kind it is functional.
The subject of series [3] is Rattus norvegicus. As to the kind of experiment: Antihypertensive activity in conscious normotensive rat after 24 hrs. It is filed as functional.
For series [4], the target named is T1, Type-1 angiotensin II receptor (Homo sapiens, UniProt P30556).
T1 sequence (P30556 whole entry): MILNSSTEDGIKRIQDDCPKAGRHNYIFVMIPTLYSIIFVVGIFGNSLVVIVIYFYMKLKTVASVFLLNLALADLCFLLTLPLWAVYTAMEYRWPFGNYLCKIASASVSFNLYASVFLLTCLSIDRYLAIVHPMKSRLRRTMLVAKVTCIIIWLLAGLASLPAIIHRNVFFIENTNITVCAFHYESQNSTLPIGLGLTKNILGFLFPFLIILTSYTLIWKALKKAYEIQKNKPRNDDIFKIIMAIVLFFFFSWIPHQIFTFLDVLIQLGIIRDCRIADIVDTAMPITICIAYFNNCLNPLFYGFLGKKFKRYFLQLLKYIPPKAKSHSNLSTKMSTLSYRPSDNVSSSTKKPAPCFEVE
Nature of the series: Displacement of [3H]-angiotensin 2 from angiotensin AT1 receptor in human PLC-PRF5 cells. In kind it is cell-based.

Series [5] concerns the target T1, Type-1 angiotensin II receptor. As to the kind of experiment: Antagonist activity at angiotensin AT1 receptor in human PLC-PRF5 cells. In kind it is functional, cell-based.
The subject of series [6] is Rattus norvegicus. As to the kind of experiment: Antihypertensive activity in po dosed conscious rat. It is filed as functional. The following applies: read-out: ED50.
Series [7] deals with Rattus norvegicus. As to the kind of experiment: Antihypertensive activity in iv dosed conscious rat. In kind it is functional.
The next series has as its system Homo sapiens. Nature of the series: Metabolic stability in iv and po dosed human assessed as conversion of EXP3174. In kind it is ADME, organism-based. The note with it: in vivo.
Series [8] in a line: Displacement of [125I]-Sar1Ile8-angiotensin 2 from angiotensin AT1 receptor in rat aortic smooth muscle cells.
A short description of series [9]: Displacement of [125I]-Sar1Ile8-angiotensin 2 from angiotensin AT1 receptor in rat adrenal cortical membranes. In kind it is cell membranes, Membrane.
In series [10] the test system is Rattus norvegicus. As to the kind of experiment: Inhibition of angiotensin 2-induced response in iv dosed conscious Sprague-Dawley rat. It is filed as functional.
The test system of series [11] is Rattus norvegicus. As to the kind of experiment: Antihypertensive activity in iv dosed salt depleted SHR rat model assessed as reduction of angiotensin 2-induced response. It is filed as functional.
Series [12] has as its system Rattus norvegicus. As to the kind of experiment: Antihypertensive activity in iv dosed salt depleted SHR rat model assessed as reduction of angiotensin 2-induced mean arterial pressure at […]. It is filed as functional, Artery. More on the design: scale not given: the % may be the effect or the level left.
In series [13] the target is T2, Type-1 angiotensin II receptor (Oryctolagus cuniculus, UniProt P34976).
T2 sequence (P34976 whole entry): T1 sequence (P30556 whole entry) with I2M, V49A, I254V, I270V, R272H, R311K, T349S, A353V
As to the kind of experiment: Binding affinity to angiotensin AT1 receptor in rabbit aortic rings.

For series [14], the target named is T3, Type-1 angiotensin II receptor (Homo sapiens) (UniProt P30556).
T3 sequence (whole entry): T1 sequence (P30556 whole entry)
As to the kind of experiment: Ratio of compound IC50 to losartan IC50 for angiotensin AT1 receptor.

The nature of series [15]: Binding affinity to angiotensin AT1 receptor in rat liver membranes. In kind it is cell membranes, Membrane.
Series [16] concerns the target T4, Type-1 angiotensin II receptor (Bos taurus, UniProt P25104).
T4 sequence (P25104 whole entry): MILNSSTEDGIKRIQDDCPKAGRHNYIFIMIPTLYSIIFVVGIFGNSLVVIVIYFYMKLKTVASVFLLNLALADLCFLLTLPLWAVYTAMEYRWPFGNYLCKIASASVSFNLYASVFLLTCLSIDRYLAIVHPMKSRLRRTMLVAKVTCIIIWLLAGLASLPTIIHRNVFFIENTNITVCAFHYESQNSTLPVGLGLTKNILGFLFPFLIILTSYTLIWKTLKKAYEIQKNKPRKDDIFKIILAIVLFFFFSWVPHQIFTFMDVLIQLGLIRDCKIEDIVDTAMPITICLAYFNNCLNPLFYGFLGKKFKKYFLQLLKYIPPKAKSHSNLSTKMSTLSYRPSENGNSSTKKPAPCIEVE
As to the kind of experiment: Displacement of radiolabeled angiotensin 2 from angiotensin AT1 receptor in bovine adrenal cortex membranes. It is filed as cell membranes, Membrane.

In series [17] the target is T5, Type-1 angiotensin II receptor (Cavia porcellus) (UniProt Q9WV26).
T5 sequence (whole entry): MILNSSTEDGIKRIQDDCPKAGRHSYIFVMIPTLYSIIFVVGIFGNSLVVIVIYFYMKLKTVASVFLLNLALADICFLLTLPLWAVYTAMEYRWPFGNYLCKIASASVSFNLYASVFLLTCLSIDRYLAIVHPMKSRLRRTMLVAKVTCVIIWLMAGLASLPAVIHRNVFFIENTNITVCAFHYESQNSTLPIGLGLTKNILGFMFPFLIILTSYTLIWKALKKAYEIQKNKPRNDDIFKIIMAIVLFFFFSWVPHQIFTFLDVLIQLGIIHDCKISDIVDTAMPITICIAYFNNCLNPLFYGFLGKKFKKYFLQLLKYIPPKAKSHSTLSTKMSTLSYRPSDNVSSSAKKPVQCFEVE
Nature of the series: Antagonist activity at angiotensin AT1 receptor in guinea pig aorta assessed as reduction of angiotensin 2-induced contractile response. In kind it is functional, tissue-based.

Series [18] deals with Rattus norvegicus. Nature of the series: Antihypertensive activity in conscious normotensive rat at 0.1 mg/kg after 6 hrs. In kind it is functional.
Series [19] relates to Rattus norvegicus. Nature of the series: Antihypertensive activity in po dosed renal hypertensive rat model. It is filed as functional. The following applies: read-out: ID50 (the source's name).
Series [20] concerns Rattus norvegicus. Nature of the series: Antihypertensive activity in iv dosed renal hypertensive rat model. In kind it is functional. The note with it: read-out: ID50 (the source's name).
In series [21] the test system is Rattus norvegicus. As to the kind of experiment: Antihypertensive activity in iv dosed renal hypertensive rat model assessed as reduction of blood pressure. It is filed as functional.
Series [22] relates to Rattus norvegicus. Nature of the series: Antihypertensive activity in po dosed renal hypertensive rat model assessed as reduction of blood pressure. It is filed as functional.
Series [23] has as its system Rattus norvegicus. Nature of the series: Antihypertensive activity in conscious normotensive rat assessed as inhibition of angiotensin 2-induced pressor response at 1 mg/kg, iv after 6 hrs. In kind it is functional.
Series [24] can be described thus: Oral bioavailability in dog. In kind it is ADME, organism-based, Canis lupus familiaris. The note with it: in vivo.
A short description of series [25]: Oral bioavailability in cynomolgus monkey. In kind it is ADME, organism-based, Macaca fascicularis. The following applies: in vivo.
Series [26] is described as follows: Oral bioavailability in rat. In kind it is ADME, organism-based. The following applies: in vivo.

Changes are numbered by the printed parent chain.

As for `CCCCc1nc(Cl)c(C(=O)O)n1Cc1ccc(-c2ccccc2-c2nn[nH]n2)cc1` [CARBOXYLIC ACID METABOLITE], the IC50 in [1] came to 0.37 nM. Moreover, in the series on Rattus norvegicus [2], the ED30 amounted to 0.038 mg/kg.
As for `CCCc1nn(Cc2ccccc2)c(C(=O)O)c1Cc1ccc(-c2ccccc2-c2nn[nH]n2)cc1`, the Activity with Rattus norvegicus [3] is listed as 90%.
In series [4], `CCCCN1CC2(CN1Cc1ccc(-c3ccccc3S(=O)(=O)NC(=O)c3ccccc3)cc1)C(=O)CCC2=O` returned a Ki of 10 nM. In [5], this compound returned an IC50 of 12 nM.
With `CCCCc1nc2ccc(NC(=O)N(C)C(C)C)cc2c(=O)n1Cc1ccc(-c2ccccc2-c2nn[nH]n2)cc1`, the ED50 in the series with Rattus norvegicus [6] was determined as 0.68 mg/kg; in the series with Rattus norvegicus [7] it was 0.25 mg/kg.
Turning to `CCCCc1nc(Cl)c(CO)n1Cc1ccc(-c2ccccc2-c2nn[nH]n2)cc1` [LOSARTAN], in the series with Homo sapiens, the Stability was determined as 14%.
For the compound `CCCCc1nc(Cl)c(C(=O)[O-])n1Cc1cccc2c1ccn2-c1ccccc1-c1nn[n-]n1.[Li+].[Li+]`, the Ki in series [8] came to 7.6 nM; in [9] it was 18.4 nM. Also, the ED50 was 0.22 µmol/kg with Rattus norvegicus [10] and 0.03 µmol/kg with Rattus norvegicus [11]. Also, the Activity in the series with Rattus norvegicus [12] came out at 39%.
Compound `CCCCC1=N[C@](C)(C2CCCCC2)C(=O)N1Cc1ccc(-c2ccccc2-c2nnn[nH]2)cc1` displayed an IC50 in [13] of 0.77 nM.
For `CCCCC1=NC2(CCCC2)C(=O)N1Cc1ccc(-c2ccccc2-c2nnn[nH]2)cc1` [IRBESARTAN], the Ratio IC50 in series [14] stood at 10. Besides, in series [15], the IC50 is 1.3 nM.
In series [16], `CCCc1nc(C(C)(C)O)c(C(=O)O)n1Cc1ccc(-c2ccccc2-c2nnn[nH]2)cc1` [OLMESARTAN] displayed an IC50 of 7.7 nM. Besides, in series [17], the pD2 turned out to be 9.9.
The compound `CCCCc1nc(-c2ccccc2Cl)c(C(=O)O)n1Cc1ccc(-c2ccccc2-c2nn[nH]n2)cc1` displayed an Activity in the series with Rattus norvegicus [18] of 88%.
In series [1], `CCCCc1nc(SC)c(C(=O)O)n1Cc1ccc(-c2ccccc2-c2nnn[nH]2)cc1` came in with a concentration for half-maximal inhibition (IC50) of 0.2 nM. In addition, the results for the ED50 in the series on Rattus norvegicus [19] and with Rattus norvegicus [20] were 0.4 mg/kg and 0.05 mg/kg, respectively.
Turning to `CCCc1nc(CN2CCN(c3ccccn3)CC2)c(C(=O)O)n1Cc1ccc(-c2ccccc2-c2nn[nH]n2)cc1`, the ED50 was determined as 0.18 mg/kg in the series with Rattus norvegicus [21] and 1.65 mg/kg in the series on Rattus norvegicus [22].
Regarding `CCc1nc2c(C)cc(C)nn2c1Cc1ccc(-c2ccccc2-c2nn[nH]n2)cc1`, the inhibition in vivo at 1 mg/kg with Rattus norvegicus [23] was 90%.
For `CCCN(Cc1ccc(-c2ccccc2-c2nn[nH]n2)cc1)c1ncccc1C(=O)O`, the bioavailability in [24], in series [25] and in [26] was greater than 50% throughout. The compound further registered a Ki in [15] of 0.76 nM.

These data come from ChEMBL document CHEMBL1667742, “Angiotensin II receptor type 1 (AT1) selective nonpeptidic antagonists--a perspective” (Bioorg Med Chem, 2010).
